Columns and labels:
Assay type in all cases: cell-based
Details in all cases: NIH-3T3 cells, ratio of maximal effect to that of standard full agonist brimonidine, NA = not active below 10 micromolar
[1] = molecular target: T1, alpha2B adrenergic receptors (Homo sapiens, UniProt P18089); test: RSAT assay (Receptor Selection and Amplification Technology), alpha2B
T1 construct: expressed in transfected cells; host or cells: NIH-3T3 cells
T1 sequence (P18089 1-450): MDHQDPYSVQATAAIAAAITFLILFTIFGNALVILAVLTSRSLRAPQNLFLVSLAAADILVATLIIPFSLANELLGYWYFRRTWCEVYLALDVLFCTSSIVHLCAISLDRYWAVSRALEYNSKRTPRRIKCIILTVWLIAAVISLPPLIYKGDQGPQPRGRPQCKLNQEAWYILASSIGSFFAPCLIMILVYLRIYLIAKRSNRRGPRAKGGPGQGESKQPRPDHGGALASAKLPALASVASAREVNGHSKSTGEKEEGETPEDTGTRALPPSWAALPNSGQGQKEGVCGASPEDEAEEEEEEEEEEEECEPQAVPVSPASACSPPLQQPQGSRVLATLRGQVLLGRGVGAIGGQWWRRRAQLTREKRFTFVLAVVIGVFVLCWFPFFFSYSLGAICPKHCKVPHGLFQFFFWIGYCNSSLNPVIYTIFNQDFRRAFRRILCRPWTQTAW
Text: (§1) The imidazole-2-thione compounds of the invention are agonists of alpha2 adrenergic receptors. Many compounds of the invention are specific or selective agonists of alpha2B and/or to a lesser extent alpha2C adrenergic receptors, in preference over alpha2A adrenergic receptors. […] 76, pp. 308-311 (incorporated herein by reference) and is also described below. Another reference pertinent to this assay is Conklin et al. (1993) Nature 363:274-6, Receptor Selection and Amplification Technology (RSAT) assay, also incorporated herein by reference.
(§2) The RSAT assay measures a receptor-mediated loss of contact inhibition that results in selective proliferation of receptor-containing cells in a mixed population of confluent cells. The increase in cell number is assessed with an appropriate transfected marker gene such as β-galactosidase, the activity of which can be easily measured in a 96-well format. Receptors that activate the G protein, Gq, elicit this response. Alpha2 receptors, which normally couple to Gi, activate the RSAT response when coexpressed with a hybrid Gq protein that has a Gi receptor recognition domain, called Gq/i5.
(§3) NIH-3T3 cells are plated at a density of 2×10^6 cells in 15 cm dishes and maintained in Dulbecco's modified Eagle's medium supplemented with 10% calf serum. One day later, cells are cotransfected by calcium phosphate precipitation with mammalian expression plasmids encoding p-SV-β-galactosidase (5-10 μg), receptor (1-2 μg) and G protein (1-2 μg). 40 μg salmon sperm DNA may also be included in the transfection mixture. Fresh media is added on the following day and 1-2 days later, cells are harvested and frozen in 50 assay aliquots. Cells are thawed and 100 μl added to 100 μl aliquots of various concentrations of drugs in triplicate in 96-well dishes. Incubations continue 72-96 hr at 37° C. After washing with phosphate-buffered saline, β-galactosidase enzyme activity is determined by adding 200 μl of the chromogenic substrate (consisting of 3.5 mM o-nitrophenyl-β-D-galactopyranoside and 0.5% nonidet P-40 in phosphate buffered saline), incubating overnight at 30° C. and measuring optical density at 420 nm. The absorbance is a measure of enzyme activity, which depends on cell number and reflects a receptor-mediated cell proliferation. The efficacy or intrinsic activity is calculated as a ratio of the maximal effect of the drug to the maximal effect of a standard full agonist for each receptor subtype. Brimonidine, also called UK14304, the chemical structure of which is shown below, is used as the standard agonist for the alpha2A, alpha2B and alpha2C receptors.
(§4) The results of the RSAT assay with several exemplary compounds of the invention are disclosed in Table 1 above together with the chemical formulas of these examplary compounds. NA stands for “not active” at cohcentrations less than 10 micromolar.

[2] = molecular target: T2, alpha2A adrenergic receptors (Homo sapiens, UniProt P08913); test: RSAT assay (Receptor Selection and Amplification Technology), alpha2A
T2 construct: expressed in transfected cells; host or cells: NIH-3T3 cells
T2 sequence (P08913 1-465): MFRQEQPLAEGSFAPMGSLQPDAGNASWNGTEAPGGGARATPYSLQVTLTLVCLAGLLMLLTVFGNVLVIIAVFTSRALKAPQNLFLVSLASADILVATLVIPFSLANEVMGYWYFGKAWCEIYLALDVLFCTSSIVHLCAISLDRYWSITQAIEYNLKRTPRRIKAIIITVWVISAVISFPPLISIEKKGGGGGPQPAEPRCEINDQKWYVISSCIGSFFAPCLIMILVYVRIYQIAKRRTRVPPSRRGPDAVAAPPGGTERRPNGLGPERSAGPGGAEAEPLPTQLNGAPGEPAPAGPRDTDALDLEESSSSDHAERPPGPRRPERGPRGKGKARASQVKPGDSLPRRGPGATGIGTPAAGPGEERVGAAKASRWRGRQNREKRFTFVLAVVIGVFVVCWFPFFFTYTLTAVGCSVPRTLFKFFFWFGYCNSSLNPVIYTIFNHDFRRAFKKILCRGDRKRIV
Text: as §1, §2, §3, §4

[3] = molecular target: T3, alpha2C adrenergic receptors (Homo sapiens, UniProt P18825); test: RSAT assay (Receptor Selection and Amplification Technology), alpha2C
T3 construct: expressed in transfected cells; host or cells: NIH-3T3 cells
T3 sequence (P18825 1-462): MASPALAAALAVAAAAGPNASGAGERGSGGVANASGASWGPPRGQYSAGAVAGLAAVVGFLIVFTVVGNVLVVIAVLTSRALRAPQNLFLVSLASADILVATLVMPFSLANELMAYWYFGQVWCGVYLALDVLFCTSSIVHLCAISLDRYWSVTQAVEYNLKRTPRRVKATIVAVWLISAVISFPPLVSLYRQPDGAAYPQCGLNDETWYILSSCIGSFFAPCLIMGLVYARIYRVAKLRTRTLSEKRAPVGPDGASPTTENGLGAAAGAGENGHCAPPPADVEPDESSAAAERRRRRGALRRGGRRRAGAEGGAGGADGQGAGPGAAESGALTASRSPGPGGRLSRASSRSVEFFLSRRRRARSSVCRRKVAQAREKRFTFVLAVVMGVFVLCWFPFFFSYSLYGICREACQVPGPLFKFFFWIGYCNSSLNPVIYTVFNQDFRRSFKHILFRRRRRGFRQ
Text: as §1, §2, §3, §4

SMILES: CC(c1c[nH]c(=S)[nH]1)c1cccc2ncccc12 (single isomer, unassigned; (+)) [Compound 14, (+)-4-(1-quinolin-5-yl-ethyl)-1,3-dihydro-imidazole-2-thione]
- Intrinsic Activity Alpha 2B [1]: 0.86

SMILES: S=c1[nH]cc(Cc2cccc3c2OCCO3)[nH]1 [Compound 1, 4-(2,3-dihydro-benzo[1,4]dioxin-5-ylmethyl)-1,3-dihydro-imidazole-2-thione]
- Intrinsic Activity Alpha 2A [2]: 0.44
- Intrinsic Activity Alpha 2B [1]: 0.94
- Intrinsic Activity Alpha 2C [3]: 0.56

SMILES: CC(c1c[nH]c(=S)[nH]1)c1cccc2c1OCCO2 (stereo not drawn) [Compound 2, 4-[1-(2,3-dihydro-benzo[1,4]dioxin-5-yl)-ethyl]-1,3-dihydro-imidazole-2-thione]
- Intrinsic Activity Alpha 2A [2]: 0.45
- Intrinsic Activity Alpha 2B [1]: 1.38
- Intrinsic Activity Alpha 2C [3]: 0.48

SMILES: CC(c1c[nH]c(=S)[nH]1)c1cccc2c1OCO2 (stereo not drawn) [Compound 3, 4-(1-benzo[1,3]dioxol-4-yl-ethyl)-1,3-dihydro-imidazole-2-thione]
- Intrinsic Activity Alpha 2A [2]: 0.56
- Intrinsic Activity Alpha 2B [1]: 0.97
- Intrinsic Activity Alpha 2C [3]: 0.77

SMILES: CC(c1c[nH]c(=S)[nH]1)c1cccc2cccnc12 (stereo not drawn) [Compound 4, 4-(1-quinolin-8-yl-ethyl)-1,3-dihydro-imidazole-2-thione]
- Intrinsic Activity Alpha 2A [2]: 0.80
- Intrinsic Activity Alpha 2B [1]: 1.03
- Intrinsic Activity Alpha 2C [3]: 0.62

SMILES: S=c1[nH]cc(Cc2ccc3c(c2)OCO3)[nH]1 [Compound 5, 4-benzo[1,3]dioxol-5-ylmethyl-1,3-dihydro-imidazole-2-thione]
- Intrinsic Activity Alpha 2B [1]: 1.05

SMILES: S=c1[nH]cc(Cc2cccc3ccccc23)[nH]1 [Compound 6, 4-naphthalen-1-ylmethyl-1,3-dihydro-imidazole-2-thione]
- Intrinsic Activity Alpha 2A [2]: 0.48
- Intrinsic Activity Alpha 2B [1]: 0.73
- Intrinsic Activity Alpha 2C [3]: 0.55

SMILES: S=c1[nH]cc(Cc2cccc3cccnc23)[nH]1 [Compound 8, 4-quinolin-8-ylmethyl-1,3-dihydro-imidazole-2-thione]
- Intrinsic Activity Alpha 2A [2]: 0.93
- Intrinsic Activity Alpha 2B [1]: 1.01
- Intrinsic Activity Alpha 2C [3]: 0.75

SMILES: S=c1[nH]cc(Cc2cccc3ncccc23)[nH]1 [Compound 9, 4-quinolin-5-ylmethyl-1,3-dihydro-imidazole-2-thione]
- Intrinsic Activity Alpha 2B [1]: 0.74

SMILES: CC(c1c[nH]c(=S)[nH]1)c1cccc2ccccc12 (stereo not drawn) [Compound 10, 4-(1-naphthalen-1-yl-ethyl)-1,3-dihydro-imidazole-2-thione]
- Intrinsic Activity Alpha 2A [2]: 0.52
- Intrinsic Activity Alpha 2B [1]: 1.21

SMILES: S=c1[nH]cc(Cc2ccc3ccccc3c2)[nH]1 [Compound 11, 4-naphthalen-2-ylmethyl-1,3-dihydro-imidazole-2-thione]
- Intrinsic Activity Alpha 2B [1]: 0.94

SMILES: CC(c1ccc2c(c1)OCCO2)c1c[nH]c(=S)[nH]1 (stereo not drawn) [Compound 12, 4-[1-(2,3-dihydro-benzo[1,4]dioxin-6-yl)-ethyl]-1,3-dihydro-imidazole-2-thione]
- Intrinsic Activity Alpha 2A [2]: 0.54
- Intrinsic Activity Alpha 2B [1]: 1.15

SMILES: S=c1[nH]cc(Cc2ccc3c(c2)CCCS3)[nH]1 [Compound 13, 4-thiochroman-6-ylmethyl-1,3-dihydro-imidazole-2-thione]
- Intrinsic Activity Alpha 2B [1]: 0.95

SMILES: S=c1[nH]cc(Cc2cccc3nsnc23)[nH]1 [Compound-16, 4-benzo[1,2,5]thiadiazol-4-ylmethyl-1,3-dihydro-imidazole-2-thione]
- Intrinsic Activity Alpha 2B [1]: 1.22
- Intrinsic Activity Alpha 2C [3]: 0.69

SMILES: CC(c1c[nH]c(=S)[nH]1)c1cccc2nsnc12 (stereo not drawn) [Compound-17, 4-(1-benzo[1,2,5]thiadiazol-4-yl-ethyl)-1,3-dihydro-imidazole-2-thione]
- Intrinsic Activity Alpha 2B [1]: 0.98

SMILES: Cc1c(C(C)c2c[nH]c(=S)[nH]2)ccc2cccnc12 (stereo not drawn) [Compound-18, 4-[1-(8-methyl-quinolin-7-yl)-ethyl]-1,3-dihydro-imidazole-2-thione]
- Intrinsic Activity Alpha 2A [2]: 0.80
- Intrinsic Activity Alpha 2B [1]: 1.05
- Intrinsic Activity Alpha 2C [3]: 0.41
